According to ChEMBL document CHEMBL3526037, “Evaluation of the relationship between sex, polymorphisms in CYP2C8 and CYP2C9, and pharmacokinetics of angiotensin receptor blockers” (Drug Metab Dispos, 2013):

How the values were obtained:
Type in all cases: ADME, organism-based
[1] = AUC in men plasma at 80 mg by LC/MS/MS analysis; conditions: male, human
[2] = AUC in women plasma at 80 mg by LC/MS/MS analysis; conditions: female, human
[3] = Cmax in men plasma at 80 mg by LC/MS/MS analysis; set-up: dose 80 mg; conditions: male, human
[4] = Cmax in women plasma at 80 mg by LC/MS/MS analysis; set-up: dose 80 mg; conditions: female, human
[5] = Half life in men plasma at 80 mg by LC/MS/MS analysis; conditions: male, human
[6] = Half life in women plasma at 80 mg by LC/MS/MS analysis; conditions: female, human
[7] = Tmax in men plasma at 80 mg by LC/MS/MS analysis; conditions: male, human
[8] = Tmax in women plasma at 80 mg by LC/MS/MS analysis; conditions: female, human
[9] = AUC in human plasma expressing CYP2C8*1/*1 polymorphism at 80 mg by LC/MS/MS analysis
[10] = Cmax in human plasma expressing CYP2C8*1/*1 polymorphism at 80 mg by LC/MS/MS analysis; set-up: dose 80 mg
[11] = Half life in human plasma expressing CYP2C8*1/*1 polymorphism at 80 mg by LC/MS/MS analysis
[12] = Tmax in human plasma expressing CYP2C8*1/*1 polymorphism at 80 mg by LC/MS/MS analysis
[13] = AUC in human plasma expressing CYP2C8*2 allele carrier polymorphism at 80 mg by LC/MS/MS analysis
[14] = Cmax in human plasma expressing CYP2C8*2 allele carrier polymorphism at 80 mg by LC/MS/MS analysis; set-up: dose 80 mg
[15] = Half life in human plasma expressing CYP2C8*2 allele carrier polymorphism at 80 mg by LC/MS/MS analysis
[16] = Tmax in human plasma expressing CYP2C8*2 allele carrier polymorphism at 80 mg by LC/MS/MS analysis
[17] = AUC in human plasma expressing CYP2C8*3 allele carrier polymorphism at 80 mg by LC/MS/MS analysis
[18] = Cmax in human plasma expressing CYP2C8*3 allele carrier polymorphism at 80 mg by LC/MS/MS analysis; set-up: dose 80 mg
[19] = Half life in human plasma expressing CYP2C8*3 allele carrier polymorphism at 80 mg by LC/MS/MS analysis
[20] = Tmax in human plasma expressing CYP2C8*3 allele carrier polymorphism at 80 mg by LC/MS/MS analysis
[21] = AUC in human plasma expressing CYP2C9*1/*1 polymorphism at 80 mg by LC/MS/MS analysis
[22] = Cmax in human plasma expressing CYP2C9*1/*1 polymorphism at 80 mg by LC/MS/MS analysis; set-up: dose 80 mg
[23] = Half life in human plasma expressing CYP2C9*1/*1 polymorphism at 80 mg by LC/MS/MS analysis
[24] = Tmax in human plasma expressing CYP2C9*1/*1 polymorphism at 80 mg by LC/MS/MS analysis
[25] = AUC in human plasma expressing CYP2C9*3 allele carrier polymorphism at 80 mg by LC/MS/MS analysis
[26] = Cmax in human plasma expressing CYP2C9*3 allele carrier polymorphism at 80 mg by LC/MS/MS analysis; set-up: dose 80 mg
[27] = Half life in human plasma expressing CYP2C9*3 allele carrier polymorphism at 80 mg by LC/MS/MS analysis
[28] = Tmax in human plasma expressing CYP2C9*3 allele carrier polymorphism at 80 mg by LC/MS/MS analysis
[29] = AUC in men plasma at 25 to 320 mg by LC/MS/MS analysis; conditions: male, human
[30] = AUC in women plasma at 25 to 320 mg by LC/MS/MS analysis; conditions: female, human
[31] = Cmax in men plasma at 25 to 320 mg by LC/MS/MS analysis; conditions: male, human
[32] = Cmax in women plasma at 25 to 320 mg by LC/MS/MS analysis; conditions: female, human
[33] = Half life in men plasma at 25 to 320 mg by LC/MS/MS analysis; conditions: male, human
[34] = Half life in women plasma at 25 to 320 mg by LC/MS/MS analysis; conditions: female, human
[35] = Tmax in men plasma at 25 to 320 mg by LC/MS/MS analysis; conditions: male, human
[36] = Tmax in women plasma at 25 to 320 mg by LC/MS/MS analysis; conditions: female, human
[37] = Tmax in human plasma expressing CYP2C8*2 allele carrier polymorphism at 25 to 320 mg by LC/MS/MS analysis
[38] = AUC in human plasma expressing CYP2C8*3 allele carrier polymorphism at 25 to 320 mg by LC/MS/MS analysis
Homo sapiens [39] = species: Homo sapiens; assay: Cmax in human plasma expressing CYP2C8*3 allele carrier polymorphism at 25 to 320 mg by LC/MS/MS analysis; conditions: in vivo
[40] = Half life in human plasma expressing CYP2C8*3 allele carrier polymorphism at 25 to 320 mg by LC/MS/MS analysis
[41] = Tmax in human plasma expressing CYP2C8*3 allele carrier polymorphism at 25 to 320 mg by LC/MS/MS analysis
[42] = AUC in human plasma expressing CYP2C8*4 allele carrier polymorphism at 25 to 320 mg by LC/MS/MS analysis
[43] = Cmax in human plasma expressing CYP2C8*4 allele carrier polymorphism at 25 to 320 mg by LC/MS/MS analysis
[44] = Half life in human plasma expressing CYP2C8*4 allele carrier polymorphism at 25 to 320 mg by LC/MS/MS analysis
[45] = Tmax in human plasma expressing CYP2C8*4 allele carrier polymorphism at 25 to 320 mg by LC/MS/MS analysis
Homo sapiens [46] = species: Homo sapiens; assay: AUC in human plasma expressing CYP2C9*3 allele carrier polymorphism at 25 to 320 mg by LC/MS/MS analysis; conditions: in vivo
[47] = Cmax in human plasma expressing CYP2C9*3 allele carrier polymorphism at 25 to 320 mg by LC/MS/MS analysis
[48] = Half life in human plasma expressing CYP2C9*3 allele carrier polymorphism at 25 to 320 mg by LC/MS/MS analysis
[49] = Tmax in human plasma expressing CYP2C9*3 allele carrier polymorphism at 25 to 320 mg by LC/MS/MS analysis
[50] = AUC in human plasma expressing CYP2C9*1/*1 polymorphism at 25 to 320 mg by LC/MS/MS analysis
[51] = Cmax in human plasma expressing CYP2C9*1/*1 polymorphism at 25 to 320 mg by LC/MS/MS analysis
[52] = Half life in human plasma expressing CYP2C9*1/*1 polymorphism at 25 to 320 mg by LC/MS/MS analysis
[53] = Tmax in human plasma expressing CYP2C9*1/*1 polymorphism at 25 to 320 mg by LC/MS/MS analysis
[54] = AUC in human plasma expressing CYP2C9*2 allele carrier polymorphism at 25 to 320 mg by LC/MS/MS analysis
[55] = Cmax in human plasma expressing CYP2C9*2 allele carrier polymorphism at 25 to 320 mg by LC/MS/MS analysis
[56] = Tmax in human plasma expressing CYP2C9*2 allele carrier polymorphism at 25 to 320 mg by LC/MS/MS analysis
[57] = AUC in human plasma expressing CYP2C8*1/*1 polymorphism at 25 to 320 mg by LC/MS/MS analysis
[58] = Cmax in human plasma expressing CYP2C8*1/*1 polymorphism at 25 to 320 mg by LC/MS/MS analysis
[59] = Half life in human plasma expressing CYP2C8*1/*1 polymorphism at 25 to 320 mg by LC/MS/MS analysis
[60] = Tmax in human plasma expressing CYP2C8*1/*1 polymorphism at 25 to 320 mg by LC/MS/MS analysis
[61] = AUC in human plasma expressing CYP2C8*2 allele carrier polymorphism at 25 to 320 mg by LC/MS/MS analysis
[62] = Cmax in human plasma expressing CYP2C8*2 allele carrier polymorphism at 25 to 320 mg by LC/MS/MS analysis

Compound `CCCc1nc2c(C)cc(-c3nc4ccccc4n3C)cc2n1Cc1ccc(-c2ccccc2C(=O)O)cc1` has an AUC [1] of 2470 ng·h/mL, an AUC [2] of 3680 ng·h/mL and a Cmax [3] of 282 ng/mL. It also gave a Cmax [4] of 590 ng/mL, a half-life [5] of 25.1 h and a half-life [6] of 33.1 h. For the same compound, the Tmax [7] was 1.3 h, the Tmax [8] was 1.4 h and the AUC [9] was 3010 ng·h/mL. The Cmax [10] was 437 ng/mL, the half-life [11] was 28.7 h and the Tmax [12] was 1.4 h. The AUC [13] was 3680 ng·h/mL, the Cmax [14] was 498 ng/mL and the half-life [15] was 29.1 h. The Tmax [16] was 1.3 h, the AUC [17] was 3230 ng·h/mL and the Cmax [18] was 494 ng/mL. It also gave a half-life [19] of 33.9 h, a Tmax [20] of 1 h and an AUC [21] of 3130 ng·h/mL. For the same compound, the Cmax [22] was 446 ng/mL, the half-life [23] was 29.7 h and the Tmax [24] was 1.4 h. It also gave an AUC [25] of 3400 ng·h/mL, a Cmax [26] of 510 ng/mL and a half-life [27] of 30.1 h. The Tmax [28] was 1.1 h.

`CCCCC(=O)N(Cc1ccc(-c2ccccc2-c2nnn[nH]2)cc1)[C@H](C(=O)O)C(C)C` showed an AUC [29] of 38800 ng·h/mL, an AUC [30] of 38600 ng·h/mL and a Cmax [31] of 4590 ng/mL. For the same compound, the Cmax [32] was 4910 ng/mL, the half-life [33] was 9.1 h and the half-life [34] was 9.4 h. It also gave a Tmax [35] of 3.2 h, a Tmax [36] of 3.2 h and a Tmax [37] of 3.1 h. For the same compound, the AUC [38] was 37400 ng·h/mL, the Cmax (Homo sapiens [39]) was 4711 ng/mL and the half-life [40] was 9.4 h. The Tmax [41] was 3 h, the AUC [42] was 39600 ng·h/mL and the Cmax [43] was 4860 ng/mL. The half-life [44] was 7.6 h, the Tmax [45] was 2.8 h and the AUC (Homo sapiens [46]) was 31449 ng·h/mL. The Cmax [47] was 4010 ng/mL, the half-life [48] was 9.9 h and the Tmax [49] was 3 h. It also gave an AUC [50] of 40600 ng·h/mL, a Cmax [51] of 4880 ng/mL and a half-life [52] of 9.1 h. For the same compound, the Tmax [53] was 3.3 h, the AUC [54] was 38800 ng·h/mL and the Cmax [55] was 4840 ng/mL. The Tmax [56] was 3 h, the AUC [57] was 36500 ng·h/mL and the Cmax [58] was 4550 ng/mL. It also gave a half-life [59] of 9.3 h, a Tmax [60] of 3.3 h and an AUC [61] of 55100 ng·h/mL. The Cmax [62] was 6140 ng/mL.
